Source: patent US20080299592A1, “Red-Shifted Luciferase” (priority 2007, published 2008)
“Also recorded” adds a separate entry of the source.

B1: TCLuc1: Firefly luciferase with optimized tetracysteine tag fused at the amino terminus, SEQ ID NO:2 (protein)
chain: GPLGSFLNCCPGCCMEPGSMEDAKNIKKGPAPFYPLEDGTAGEQLHKAMKRYALVPGTIAFTDAHIEVDITYAEYFEMSVRLAEAMKRYGLNTNHRIVVCSENSLQFFMPVLGALFIGVAVAPANDIYNERELLNSMGISQPTVVFVSKKGLQKILNVQKKLPIIQKIIIMDSKTDYQGFQSMYTFVTSHLPPGFNEYDFVPESFDRDKTIALIMNSSGSTGLPKGVALPHRTACVRFSHARDPIFGNQIIPDTAILSVVPFHHGFGMFTTLGYLICGFRVVLMYRFEEELFLRSLQDYKIQSALLVPTLFSFFAKSTLIDKYDLSNLHEIASGGAPLSKEVGEAVAKRFHLPGIRQGYGLTETTSAILITPEGDDKPGAVGKVVPFFEAKVVDLDTGKTLGVNQRGELCVRGPMIMSGYVNNPEATNALIDKDGWLHSGDIAYWDEDEHFFIVDRLKSLIKYKGYQVAPAELESILLQHPNIFDAGVAGLPDDDAGELPAAVVVLEHGKTMTEKEIVDYVASQVTTAKKLRGGVVFVDEVPKGLTGKLDARKIREILIKAKKGGKIAV
B2: TCLuc2: Firefly luciferase with optimized tetracysteine tag fused at the carboxy terminus, SEQ ID NO:3 (protein)
chain: GPLGSMEDAKNIKKGPAPFYPLEDGTAGEQLHKAMKRYALVPGTIAFTDAHIEVDITYAEYFEMSVRLAEAMKRYGLNTNHRIVVCSENSLQFFMPVLGALFIGVAVAPANDIYNERELLNSMGISQPTVVFVSKKGLQKILNVQKKLPIIQKIIIMDSKTDYQGFQSMYTFVTSHLPPGFNEYDFVPESFDRDKTIALIMNSSGSTGLPKGVALPHRTACVRFSHARDPIFGNQIIPDTAILSVVPFHHGFGMFTTLGYLICGFRVVLMYRFEEELFLRSLQDYKIQSALLVPTLFSFFAKSTLIDKYDLSNLHEIASGGAPLSKEVGEAVAKRFHLPGIRQGYGLTETTSAILITPEGDDKPGAVGKVVPFFEAKVVDLDTGKTLGVNQRGELCVRGPMIMSGYVNNPEATNALIDKDGWLHSGDIAYWDEDEHFFIVDRLKSLIKYKGYQVAPAELESILLQHPNIFDAGVAGLPDDDAGELPAAVVVLEHGKTMTEKEIVDYVASQVTTAKKLRGGVVFVDEVPKGLTGKLDARKIREILIKAKKGGKIAVFLNCCPGCCMEP
B3: TCLuc3: N-terminal TC-tagged luciferase with flexible (Gly-Ser)3 repeat spacer, SEQ ID NO:4 (protein)
chain: GPLGSFLNCCPGCCMEPGSGSGSGSMEDAKNIKKGPAPFYPLEDGTAGEQLHKAMKRYALVPGTIAFTDAHIEVDITYAEYFEMSVRLAEAMKRYGLNTNHRIVVCSENSLQFFMPVLGALFIGVAVAPANDIYNERELLNSMGISQPTVVFVSKKGLQKILNVQKKLPIIQKIIIMDSKTDYQGFQSMYTFVTSHLPPGFNEYDFVPESFDRDKTIALIMNSSGSTGLPKGVALPHRTACVRFSHARDPIFGNQIIPDTAILSVVPFHHGFGMFTTLGYLICGFRVVLMYRFEEELFLRSLQDYKIQSALLVPTLFSFFAKSTLIDKYDLSNLHEIASGGAPLSKEVGEAVAKRFHLPGIRQGYGLTETTSAILITPEGDDKPGAVGKVVPFFEAKVVDLDTGKTLGVNQRGELCVRGPMIMSGYVNNPEATNALIDKDGWLHSGDIAYWDEDEHFFIVDRLKSLIKYKGYQVAPAELESILLQHPNIFDAGVAGLPDDDAGELPAAVVVLEHGKTMTEKEIVDYVASQVTTAKKLRGGVVFVDEVPKGLTGKLDARKIREILIKAKKGGKIAV
B4: TCLuc4: N-terminal TC-tagged luciferase with truncated amino acids between tag and luciferase, SEQ ID NO:5 (protein)
chain: GPLGSFLNCCPGCCMEDAKNIKKGPAPFYPLEDGTAGEQLHKAMKRYALVPGTIAFTDAHIEVDITYAEYFEMSVRLAEAMKRYGLNTNHRIVVCSENSLQFFMPVLGALFIGVAVAPANDIYNERELLNSMGISQPTVVFVSKKGLQKILNVQKKLPIIQKIIIMDSKTDYQGFQSMYTFVTSHLPPGFNEYDFVPESFDRDKTIALIMNSSGSTGLPKGVALPHRTACVRFSHARDPIFGNQIIPDTAILSVVPFHHGFGMFTTLGYLICGFRVVLMYRFEEELFLRSLQDYKIQSALLVPTLFSFFAKSTLIDKYDLSNLHEIASGGAPLSKEVGEAVAKRFHLPGIRQGYGLTETTSAILITPEGDDKPGAVGKVVPFFEAKVVDLDTGKTLGVNQRGELCVRGPMIMSGYVNNPEATNALIDKDGWLHSGDIAYWDEDEHFFIVDRLKSLIKYKGYQVAPAELESILLQHPNIFDAGVAGLPDDDAGELPAAVVVLEHGKTMTEKEIVDYVASQVTTAKKLRGGVVFVDEVPKGLTGKLDARKIREILIKAKKGGKIAV
B5: TCLuc5: N-terminal TC-tagged Δ2-luciferase, truncated, SEQ ID NO:6 (protein)
chain: GPLGSFLNCCPGCCDAKNIKKGPAPFYPLEDGTAGEQLHKAMKRYALVPGTIAFTDAHIEVDITYAEYFEMSVRLAEAMKRYGLNTNHRIVVCSENSLQFFMPVLGALFIGVAVAPANDIYNERELLNSMGISQPTVVFVSKKGLQKILNVQKKLPIIQKIIIMDSKTDYQGFQSMYTFVTSHLPPGFNEYDFVPESFDRDKTIALIMNSSGSTGLPKGVALPHRTACVRFSHARDPIFGNQIIPDTAILSVVPFHHGFGMFTTLGYLICGFRVVLMYRFEEELFLRSLQDYKIQSALLVPTLFSFFAKSTLIDKYDLSNLHEIASGGAPLSKEVGEAVAKRFHLPGIRQGYGLTETTSAILITPEGDDKPGAVGKVVPFFEAKVVDLDTGKTLGVNQRGELCVRGPMIMSGYVNNPEATNALIDKDGWLHSGDIAYWDEDEHFFIVDRLKSLIKYKGYQVAPAELESILLQHPNIFDAGVAGLPDDDAGELPAAVVVLEHGKTMTEKEIVDYVASQVTTAKKLRGGVVFVDEVPKGLTGKLDARKIREILIKAKKGGKIAV

Assays:
[1] = test system: tetracysteine-tagged protein; assay: Binding/labeling of tetracysteine-tagged protein by bis-arsenical dyes (MALDI-MS); conditions: for binding to tetracysteine-tagged protein: MALDI-MS, canonical tetracysteine tag
HeLa cells = assay: Intracellular staining of mammalian tissue culture cells (HeLa) with bis-arsenical dyes; assay type: cell-based; conditions: absence of tetracysteine-tagged proteins and thiol competitors
tetracysteine tag = conditions: FlAsH / tetracysteine tag; Adams et al. 2002; read-out: dissociation constant; cited from earlier work
mice = conditions: cited from earlier work
[2] = test system: tetracysteine-tagged firefly luciferase; assay: BRET from tetracysteine-tagged firefly luciferase constructs to ReAsH; assay type: biochemical; conditions: for BRET: to ReAsH, purified TC-tagged luciferase constructs, Table 1; for efficiency of BRET (apparent): treatment with ReAsH
Description: Firefly luciferase fusion proteins with an optimized tetracysteine (TC) tag ([…]; SEQ ID NO:1) (Martin et al., Nature Biotechnology, 2005, 23:1308-14) fused onto either the amino (TCLuc1) or carboxy (TCLuc2) terminus of the luciferase protein (Promega's pGL3 (GenBank No. U47295.2)) were cloned and expressed (see list in Table 1). The proteins were expressed in E. Coli as GST fusions, purified by glutathione agarose affinity chromatography, and eluted as the TC-tagged protein by cleavage with PreScission™ protease.
The emission spectrum is sharpened, such that the maximum at 608 nm is actually higher than the 560 nm peak of luciferase (FIG. 3).
To help evaluate the role of distance and orientation on the BRET efficiency, additional N-terminal fusions of the TC tag were constructed (Table 1). […] The best-performing TCLuc1 fusion was cloned into pcDNA3.1 for expression in mammalian tissue culture cells. This construct lacks a C-terminal peroxisomal targeting sequence, and thus the expressed luciferase will localize to the cytoplasm.

Molecule	binding to tetracysteine-tagged protein [1]	intracellular staining (HeLa cells)	BRET [2]	efficiency of BRET (apparent) [2]	also measured
O=c1ccc2nc3ccc(O)c([As]4SCCS4)c3oc-2c1[As]1SCCS1 [ReAsH, reference compound]	binding	bright intracellular staining	–	–	–
FlAsH [reference compound]	binding	bright intracellular staining	–	–	Kd (tetracysteine tag): ~4 pM
CN(Cc1cnc2nc(N)nc(N)c2n1)c1ccc(C(=O)N[C@@H](CCC(=O)O)C(=O)O)cc1 [methotrexate]	–	–	–	–	LD50 relative to melarsonyl (mice; mouse, in vivo): two-fold lower LD50 than melarsonyl
bis-arsenical oxazine 170 [As2Ox170]	fails to bind; also recorded: lack of binding	intracellular staining; also recorded: highly fluorescent within cells	–	–	fluorescent labeling of tetracysteine-tagged proteins [1]: fails to fluorescently label
Nc1ccc([As](=O)(O)O)cc1 [arsanilic acid]	–	–	–	–	LD50 (mice; mice): 248 mg/kg
B1	–	–	~80%	about 80%	–
B2	–	–	~50%	about 50%	–
B3	–	–	~50%	about 50%	–
B4	–	–	quenches	quenching of luciferase emission	–
B5	–	–	inactive	complete loss of luciferase activity	–
